In one experiment the test system is KCHSC. Put plainly: Post-emergence herbicidal effect, greenhouse pot test. The settings on record: 504 h, 320 g/ha, read-out: Post-emergence effect against KCHSC in %. In kind it is in vivo. The gist of the method:
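Greenhouse plants in sandy loam, sprayed post-emergence at the one-leaf stage (2–3 weeks after sowing) with WP or EC formulations in water plus 0.5% additive at 600 l/ha. Rates 20 to 320 g/ha. Activity rated visually after about 3 weeks against untreated controls (0% like control, 100% dead).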

A further experiment deals with AVEFA. The experiment is described as above. In kind it is in vivo, Avena fatua. Particulars: Avena fatua, 504 h, 320 g/ha, visual rating about 3 weeks after treatment, read-out: Post-emergence effect against AVEFA. The gist of the method:
(§1)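 Sandy loam pots, greenhouse. One-leaf stage (2–3 wk after sowing) foliar spray; WP/EC in water + 0.5% additive, 600 l/ha; 20–320 g/ha. Visual score ~3 wk, 0–100% vs untreated.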

A further experiment relates to PHBPU. The description is as above. Format: in vivo, Ipomoea purpurea. Particulars: Ipomoea purpurea, 504 h, read-out: Post-emergence effect against PHBPU in %. An outline of the steps: as §1
In another experiment the test system is DIGSA. Described as above. Format: in vivo, Digitaria sanguinalis. The settings on record: Digitaria sanguinalis, 504 h, visual rating about 3 weeks after treatment, read-out: Post-emergence effect against DIGSA. The gist of the method:
as §1

In the next experiment the test system is TRZAS. Put plainly: Post-emergence herbicidal effect and crop plant compatibility, greenhouse pot test. In kind it is in vivo, Triticum aestivum. Particulars: Triticum aestivum, 504 h, 20 g/ha, one-leaf stage, rated visually after about 3 weeks vs untreated controls, read-out: Post-emergence effect at 20 g/ha against TRZAS in %. An excerpt:
• ALOMY: Alopecurus myosuroides SETVI: Setaria viridis • AVEFA: Avena fatua POLCO: Fallopia convolvulus • AMARE: Amaranthus retroflexus ECHCG: Echinochloa crus-galli • LOLRJ: Lolium rigidum STEME: Stellaria media • VERPE: Veronica persica MATIN: Tripleurospermum inodorum • DIGSA: Digitaria sanguinalis ABUTH: Abutylon threophrasti • TRZAS: Triticum aestivum VIOTR: Viola tricolor • BRSNW: Brassica napus ZEAMX: Zea mays • PHBPU: Ipomoea purpurea GLXMA: Glycine max • ORYSA: Oryza sativa HORMU: Hordeum murinum
Seeds of monocotyledonous and dicotyledonous weeds and crop plants are placed in sandy loam in plastic or organic planting pots, covered with soil and cultivated in a greenhouse under controlled growth conditions. 2 to 3 weeks after sowing, the trial plants are treated at the one-leaf stage. The compounds of the invention, formulated in the form of wettable powders (WP) or as emulsion concentrates (EC), are then sprayed onto the green parts of the plants as aqueous suspension or emulsion with addition of 0.5% additive at a water application rate of 600 l/ha (converted). After the test plants have been kept in the greenhouse under optimum growth conditions for about 3 weeks, the activity of the preparations is rated visually in comparison to untreated controls. For example, 100% activity=the plants have died, 0% activity=like control plants.
Tables 20a to 38c below show the effects/crop compatibilities of selected compounds of the general formula (I) on various harmful plants at an application rate corresponding to 20 to 320 g/ha, which were obtained by the trial procedure specified above.

The test system of a further experiment is ABUTH. Put plainly: Post-emergence herbicidal effect, greenhouse pot test. In kind it is in vivo, Abutilon theophrasti. Particulars: Abutilon theophrasti, 504 h, visual rating about 3 weeks after treatment, read-out: Post-emergence effect against ABUTH. An outline of the steps:
as §1

In another experiment the test system is SETVI. The experiment is described as above. Format: in vivo, Setaria viridis. Particulars: Setaria viridis, 504 h, read-out: Post-emergence effect against SETVI in %. An outline of the steps: as §1
The test system of the next experiment is VERPE. The description is as above. Format: in vivo, Veronica persica. The settings on record: Veronica persica, 504 h, read-out: Post-emergence effect against VERPE in %. An outline of the steps:
as §1

The test system of the next experiment is POLCO. The description is as above. The settings on record: Fallopia convolvulus, 504 h, read-out: Post-emergence effect against POLCO in %. Format: in vivo, Fallopia convolvulus. An outline of the steps: as §1
For a further experiment, the system named is VIOTR. Described as above. Format: in vivo, Viola tricolor. Particulars: Viola tricolor, 504 h, read-out: Post-emergence effect against VIOTR in %. An outline of the steps:
as §1

A further experiment deals with ZEAMX. Put plainly: Post-emergence herbicidal effect and crop plant compatibility, greenhouse pot test. Particulars: one-leaf stage, rated visually after about 3 weeks vs untreated controls; for plant injury at 20 g/ha: read-out: Post-emergence effect at 20 g/ha against ZEAMX in %; for plant injury at 80 g/ha: read-out: Post-emergence effect at 80 g/ha against ZEAMX in %. In kind it is in vivo, Zea mays. An outline of the steps: as §1

Another experiment deals with ECHCG. Put plainly: Post-emergence herbicidal effect, greenhouse pot test. In kind it is in vivo, Echinochloa crus-galli. The settings on record: Echinochloa crus-galli, 504 h, read-out: Post-emergence effect against ECHCG in %. The gist of the method:
as §1

Another experiment relates to AMARE. Described as above. Format: in vivo, Amaranthus retroflexus. Particulars: Amaranthus retroflexus, 504 h, visual rating about 3 weeks after treatment, read-out: Post-emergence effect against AMARE. An outline of the steps: as §1
The subject of the next experiment is ALOMY. The experiment is described as above. Format: in vivo, Alopecurus myosuroides. The settings on record: Alopecurus myosuroides, 504 h, 320 g/ha, visual rating about 3 weeks after treatment, read-out: Post-emergence effect against ALOMY. The gist of the method:
as §1

In another experiment the test system is MATIN. The experiment is described as above. Particulars: Tripleurospermum inodorum, 504 h, read-out: Post-emergence effect against MATIN in %. Format: in vivo, Tripleurospermum inodorum. An outline of the steps: as §1

As for `COC(Oc1nn(-c2ncccc2F)c(-c2ccc(F)nc2)c1C1CC1)C(=O)O` (centres unmarked) [Example I-56], the pest or weed control at 320 g/ha in the experiment with KCHSC was determined as 90%; in the experiment with AVEFA, 80%; with PHBPU, 80%; with DIGSA, 80%; with ABUTH it was 80%; with SETVI, 80%. Besides, the pest or weed control at 320 g/ha worked out at 80% in the experiment on VERPE, 80% in the experiment with POLCO, 90% in the experiment on VIOTR and 90% in the experiment on ECHCG. Also, the percent crop injury (phytotoxicity) to wheat, post-emergence at 20 g/ha in the experiment on TRZAS stood at 0%. The “Post-emergence effect at 320 g/ha against ZEAMX in %” value in the experiment with ZEAMX (320 g/ha) came out at 20%. The plant injury at 20 g/ha with ZEAMX (Zea mays, 504 h) was 0%. Besides, in the experiment on ZEAMX (Zea mays, 504 h), the plant injury at 80 g/ha turned out to be 0%. Further, in the experiment with ECHCG, the pest or weed control at 80 g/ha is 80%.

For `COC(Oc1nn(-c2ncccc2F)c(-c2ccc(F)nc2)c1C(F)(F)F)C(=O)O` (centres unmarked) [Example I-57], the pest or weed control at 320 g/ha with KCHSC stood at 90%; in the experiment with AVEFA, 80%; in the experiment on PHBPU, 80%; with POLCO, 80%; with VIOTR it was 80%; in the experiment on ECHCG, 90%. Moreover, the percent crop injury (phytotoxicity) to wheat, post-emergence at 20 g/ha in the experiment on TRZAS stood at 0%. Further, in the experiment on ZEAMX (Zea mays, 504 h), the plant injury at 20 g/ha was found to be 0%. In the experiment with ZEAMX (Zea mays, 504 h), the plant injury at 80 g/ha was 0%. Besides, the plant injury at 320 g/ha in the experiment on ZEAMX (Zea mays, 504 h, 320 g/ha, read-out: Post-emergence effect at 320 g/ha against ZEAMX in %) amounted to 0%.

Regarding `COC(=O)C(OC)Oc1nn(-c2cccc(Cl)c2F)c(-c2cncc(F)c2)c1Cl` (centres unmarked) [Example I-16, Methyl {[4-chloro-1-(3-chloro-2-fluorophenyl)-5-(5-fluoropyridin-3-yl)-1H-pyrazol-3-yl]oxy}(methoxy)acetate], the pest or weed control at 80 g/ha was determined as 80% in the experiment on AMARE (80 g/ha); 90% in the experiment on PHBPU (80 g/ha); 80% in the experiment with DIGSA (80 g/ha); 90% in the experiment on ABUTH (80 g/ha); 80% in the experiment on SETVI (80 g/ha); 80% in the experiment on MATIN (80 g/ha). Besides, the pest or weed control at 80 g/ha stood at 80% with VIOTR (80 g/ha) and 90% with ECHCG. Moreover, the pest or weed control at 320 g/ha in the experiment on AMARE was 80%; with AVEFA, 90%; in the experiment with PHBPU, 90%; in the experiment with DIGSA it was 90%; in the experiment on ABUTH, 90%; in the experiment on ALOMY, 90%. The pest or weed control at 320 g/ha was 80% in the experiment with SETVI; 80% with VERPE; 80% with POLCO; 90% in the experiment with MATIN; 90% in the experiment with VIOTR; 90% in the experiment with ECHCG. Besides, the pest or weed control at 20 g/ha in the experiment on PHBPU (20 g/ha) and in the experiment with VIOTR (20 g/ha) was 80% in each case. Besides, the percent crop injury (phytotoxicity) to wheat, post-emergence at 20 g/ha in the experiment on TRZAS was 10%.

In the case of `COC(Oc1nn(-c2ccccc2F)c(-c2ccc(F)nc2)c1C1CC1)C(=O)O` (centres unmarked) [Example I-69], the pest or weed control at 320 g/ha was determined as 80% with KCHSC; 80% in the experiment with PHBPU; 90% in the experiment with ABUTH; 80% in the experiment on VERPE; 80% in the experiment with POLCO; 80% in the experiment on MATIN. For the same molecule, the pest or weed control at 320 g/ha with VIOTR and with ECHCG was 90% throughout. Also, the percent crop injury (phytotoxicity) to wheat, post-emergence at 20 g/ha in the experiment on TRZAS worked out at 0%. Besides, the pest or weed control at 80 g/ha in the experiment on POLCO (80 g/ha) worked out at 80%. For the same molecule, the plant injury at 20 g/ha in the experiment with ZEAMX (Zea mays, 504 h) amounted to 0%. The plant injury at 80 g/ha in the experiment with ZEAMX (Zea mays, 504 h) came out at 0%.

In the case of `CCOC(=O)C(OC)Oc1nn(-c2ccccc2F)c(-c2ccc(F)nc2)c1Br` (centres unmarked) [Example I-22], the pest or weed control at 320 g/ha with AMARE turned out to be 90%; with AVEFA it was 80%; in the experiment with PHBPU it was 90%; with DIGSA, 80%; in the experiment with ALOMY, 90%; with SETVI, 90%. In addition, the pest or weed control at 320 g/ha in the experiment on VERPE was 90%; with MATIN, 90%; with VIOTR it was 80%; with ECHCG it was 90%. For the same molecule, in the experiment with TRZAS, the percent crop injury (phytotoxicity) to wheat, post-emergence at 20 g/ha came to 20%. For the same molecule, the pest or weed control at 80 g/ha with VERPE (80 g/ha) came out at 90%. Moreover, the plant injury at 20 g/ha in the experiment with ZEAMX (Zea mays, 504 h) was determined as 20%. Besides, the plant injury at 80 g/ha with ZEAMX (Zea mays, 504 h) was 20%.

Values taken from US20240391862A1, “(1,4,5-TRISUBSTITUTED-1H-PYRAZOL-3-YL)OXY-2-ALKOXY ALKYL ACIDS AND THEIR DERIVATIVES, THEIR SALTS AND THEIR USE AS HERBICIDAL AGENTS” (Bayer AKtiengesellschaft, priority 2021, published 2024).
